According to patent publication US20250387398A1, “NEW HIGH-EFFICIENCY ANTIMICROBIAL COMPOSITION” (CM4CURE S.A., priority 2023, published 2025):
Read-outs that look alike come from different tables or passages of the source. Values belong to the compound of their own block, whether it stands above or below them.

Experiments:
[1] = test system: Fusobacterium nucleatum; details: cited from earlier work
[2] = test system: Candida tropicalis; details: cited from earlier work
[3] = test system: Staphylococcus aureus MRSA; details: cited from earlier work
[4] = test system: Porphyromonas gingivalis; details: cited from earlier work
[5] = test system: Lactobacillus acidophilus; details: cited from earlier work
[6] = test system: Streptococcus mutans; details: cited from earlier work
[7] = test system: Staphylococcus aureus (MRSA, ATCC 6538); assay: Real-time microcalorimetric measurement of metabolic activity (Calscreener); type: cell-based
Protocol: Staphylococcus aureus (MRSA, ATCC 6538) was grown overnight in TSB (tryptic soy broth) medium, before being diluted 1×10^6 fold in fresh TSB. Subsequently […] aliquots of diluted bacteria suspensions were respectively supplemented with 1 and 2 mg/L of chlorhexidine (digluconate solution, 20% in H2O, Merck). […] The aqueous solution of chlorhexidine and the ethanol-based solution of triafluocyl were kept refrigerated. Chlorhexidine, triafluocyl or both, and ethanol as a vehicle were added to the bacterial suspensions to obtain the given concentrations followed by a brief vortexing. Bacterial aliquots were then distributed in the dedicated non-activated inserts of a 48-well plate and grown for 24 h or more under static conditions at 37 C using Calscreener technology to measure bacterial growth and metabolic activity in Real-Time as described in https://cordis.europa.eu/project/id/784514.
In FIG. 3, one sees the real-time microcalorimetric measurements of bacterial metabolic activity expressed as the heat flow, providing S. aureus as an example of Gram-positive bacteria strain. The line A stands for control bacteria with a vehicle at 0.66% ethanol in TSB, whereas the line B represents bacteria treated respectively with 1 mg/L of triafluocyl; C—1 mg/L of chlorhexidine; D—2 mg/L of chlorhexidine; and E—1 mg/L of chlorhexidine with 1 mg/L of triafluocyl.
Staphylococcus aureus (MRSA, ATCC 6538) was grown overnight in TSB (tryptic soy broth) medium, before being diluted 1×10^6 fold in fresh TSB. Subsequently […] aliquots of diluted bacteria suspensions were respectively supplemented with 0.25, 0.5 and 1 μg/mL of chlorhexidine (digluconate solution, 20% in H2O, Merck) or alexidine dihydrochloride (stock solution of 3 mg/mL in ethanol, Merck).
The aqueous solution of chlorhexidine and the ethanol-based solution of alexidine were kept refrigerated. Chlorhexidine, alexidine, and ethanol as a vehicle were added to the bacterial suspensions to obtain the given concentrations followed by a brief vortexing. Bacterial aliquots were then distributed in the dedicated non-activated inserts of a 48-well plate and grown for 24 h or more under static conditions at 37 C using Calscreener technology to measure bacterial growth and metabolic activity in Real-Time as described in https://cordis.europa.eu/project/id/784514.
In FIG. 4 the real-time microcalorimetric measurements of bacterial metabolic activity is expressed as the heat flow, providing S. aureus as an example. The line A stands for control bacteria with a vehicle (ethanol), whereas the line B represents bacteria treated respectively with 0.25 mg/mL of chlorhexidine; C—0.5 mg/mL of chlorhexidine; D—1 mg/mL of chlorhexidine; E—0.25 mg/mL of alexidine; F −0.5 mg/mL of alexidine; and G—1 mg/mL of alexidine.
Staphylococcus aureus (MRSA, ATCC 6538) was grown overnight in TSB (tryptic soy broth) medium, before being diluted 1×10^6 fold in fresh TSB. Subsequently […] aliquots of diluted bacteria suspensions were respectively supplemented with […] of alexidine dihydrochloride (stock solution of 3 mg/mL in ethanol, Merck). […] The ethanol-based solutions of alexidine and fluometacyl were stored at −20° C. […]
In FIG. 5 real-time microcalorimetric measurements of bacterial metabolic activity is expressed as the heat flow, providing S. aureus as an example. […]

[8] = test system: Candida krusei; details: cited from earlier work
[9] = background, cited from earlier work
[10] = test system: Candida albicans (CA); assay: MIC in monotherapy and in combination (ISO standard 20776-1); type: cell-based
Excerpt: (§1) Summary Of MIC values for Fluometacyl (FLC)+Chlorhexidine (CHX) Tested Against MRSA, Enterococcusfaecalis (VRE), Pseudomonas aeruginosa (PA) and Candida albicans (CA).
(§2) By Minimum Inhibitory Concentration (MIC) one means the lowest concentration of antimicrobial that prevents visible growth of a microorganism (determined according to ISO standard 20776-1).
(§3) This finds an implication in combining many known antimicrobials together rather than discovering new chemical entities.

[11] = test system: Pseudomonas aeruginosa (PA); assay: as above; type: cell-based
Excerpt: as §1, §2, §3

[12] = test system: Pseudomonas aeruginosa (ATCC 15442); assay: Real-time microcalorimetric measurement of metabolic activity (Calscreener); type: cell-based
Protocol: Pseudomonas aeruginosa (ATCC 15442) was grown overnight in TSB (tryptic soy broth) medium, before being diluted 1×10^7 fold in fresh TSB. Subsequently […] aliquots of diluted bacteria suspensions were respectively supplemented with 1, 2, 4, 6, 12 and 24 mg/L of chlorhexidine (digluconate solution, 20% in H2O, Merck). The aqueous solution of chlorhexidine was kept refrigerated according to the manufacturer's technical sheet. Chlorhexidine or mQH2O as a vehicle were added to the bacterial suspensions to obtain the given concentrations followed by a brief vortexing. Bacterial aliquots were then distributed in the dedicated non-activated inserts of a 48-well plate and grown for 24 h or more under static conditions at 37 C using Calscreener technology to measure bacterial growth and metabolic activity in Real-Time as described in https://cordis.europa.eu/project/id/784514.
For the study of the combination of chlorhexidine and triafluocyl aforementioned diluted bacterial suspensions were supplemented with either chlorhexidine alone (1, 2, 4, 6, 12 mg/L) or mixed with triafluocyl (20 mg/L, Polpharma). Triafluocyl was stored in absolute ethanol in the refrigerator at a concentration of 3 mg/mL. […]
FIG. 1, illustrates a real-time microcalorimetric measurements of bacterial metabolic activity expressed as the heat flow, providing P. aeruginosa as an example. […]

Compound: [H]/N=C(\N/C(=N/[H])NCCCCCCNC(=N)NC(=N)Nc1ccc(Cl)cc1)Nc1ccc(Cl)cc1 [Chlorhexidine, chlorhexidine]
MIC of chlorhexdine [1]: 1.8 µg/mL
MIC of chlorhexdine [2]: 75 µg/mL
MIC of chlorhexdine [3]: 2 to 8 µg/mL
MIC of chlorhexdine ([3]; listed as chlorexhidrine): 1 to 8 µg/mL
MIC of chlorhexdine ([3]; listed as chlorhexidrine): 1 to 8 µg/mL
MIC of chlorhexdine [4]: 0.9 µg/mL
MIC of chlorhexdine [5]: 0.5 to 2 µg/mL
MIC of chlorhexdine [6]: 0.9 to 4 µg/mL
effect on growth (heat flow) ([7]; chlorhexidine 1 mg/L, FIG. 3): strong shift in a metabolic activity
effect on growth (heat flow) ([7]; chlorhexidine 1 mg/mL, FIG. 4): strong shift in a metabolic activity
MIC of chlorhexdine [8]: 150 µg/mL
solubility in water ([9]; chlorhexidine base): insoluble in water

MIC Monotherapy (X) [10]: Not detected
MIC Monotherapy (X) [11]: Not detected
Compound: CCCSc1nc(N[C@@H]2C[C@H]2c2ccc(F)c(F)c2)c2nnn([C@@H]3C[C@H](O)[C@@H](O)[C@H]3O)c2n1 [Fluometacyl, (1S,2R,3S,4R)-4-[7-[[(1R,2S)-2-(3,4-Difluorophenyl)cyclopropyl]amino]-5-(propylthio)-3H-1,2,3-triazolo[4,5-d]pyrimidin-3-yl]-1,2,3-cyclopentanetriol]
solubility in an aqueous environment or aqueous medium [9]: generally not soluble

Compound: CCCSc1nc(N[C@@H]2C[C@H]2c2ccc(F)c(F)c2)c2nnn([C@@H]3C[C@H](OCCO)[C@@H](O)[C@H]3O)c2n1 [Triafluocyl, (1S,2S,3R,5S)-3-[7-[(1R,2S)-2-(3,4-difluorophenyl)cyclopropylamino]-5-(propylthio)-3H-[1,2,3]-triazolo[4,5-d]pyrimidin-3-yl]-5-(2-hydroxyethoxy)-1,2-cyclopentanediol]
effect on growth (heat flow) ([12]; triafluocyl 20 mg/L, FIG. 2): does not inhibit the growth
effect on growth (heat flow) ([7]; triafluocyl 1 mg/L, FIG. 3): doesn't affect the growth
solubility in an aqueous environment or aqueous medium [9]: generally not soluble

Compound: alexidine
effect on growth (heat flow) ([12]; alexidine 4 mg/mL, FIG. 6): strong growth inhibition
effect on growth (heat flow) ([7]; alexidine 1 mg/mL, FIG. 4): full growth inhibition
effect on growth (heat flow), compared with chlorhexidine ([7]; alexidine 0.25 and 0.5 mg/mL, FIG. 4): noticeably stronger effect
